pIC50: −log10 of the molar value. Like-named read-outs stand apart in the source and are kept apart here.
How the values were obtained:
DOHH2 cells = assay: Cell proliferation assay (MTS), DOHH2 cells, 120 h; format: cell-based
Procedure, shortened: (§1)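 RS4;11 and DOHH2 cells at 5000 cells/well in RPMI-1640 with 10% FBS were treated with compound at 1.5–10000 nM final, nine points, at 37 °C, 5% CO2. Exposure was 72 h for RS4;11 and 120 h for DOHH2. MTS was added for 2 h, absorbance read at 490/650 nm, and IC50 calculated.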

RS4;11 cells = assay: Cell proliferation assay (MTS), RS4;11 cells, 72 h; format: cell-based
Procedure, shortened: as §1

Row | Compound | pIC50 (DOHH2 cells; Homo sapiens, DOHH-2, 120 h) | pIC50 (RS4;11 cells; Homo sapiens, RS4-11, 72 h) | pIC50 (DOHH2 cells) | pIC50 (RS4;11 cells)
1 | C[C@@H]1CN(C[C@H]2COc3cc(S(=O)(=O)NC(=O)c4ccc(N5CCN(CC6=C(c7ccc(Cl)cc7)CC(C)(C)CC6)CC5)cc4Oc4cnc5[nH]ccc5c4)cc([N+](=O)[O-])c3N2)CCO1 [Example 2-32, 2-((1H-pyrrolo[2,3-b]pyridin-5-yl)oxy)-4-(4-((4′-chloro-5,5-dimethyl-3,4,5,6-tetrahydro-[1,1′-biphenyl]-2-yl)methyl)piperazin-1-yl)-N-(((S)-3-(((R)-2-methylmorpholino)meth-yl)-5-nitro-3,4-dihydro-2H-benzo[b][1,4]oxazin-7-yl)sulfonyl)benzamide] | 7.47 | 7.74 |  | 
2 | CC1(C)CCC(CN2CCN(c3ccc(C(=O)NS(=O)(=O)c4cc5c(c([N+](=O)[O-])c4)N[C@H](CCN=S(C)(C)=O)CO5)c(Oc4cnc5[nH]ccc5c4)c3)CC2)=C(c2ccc(Cl)cc2)C1 [Example 2-33, (R)-2-((1H-pyrrolo[2,3-b]pyridin-5-yl)oxy)-4-(4-((4′-chloro-5,5-dimethyl-3,4,5,6-tetra-hydro-[1,1′-biphenyl]-2-yl)methyl)piperazin-1-yl)-N-((3-(2-((dimethyl(oxo)-l6-sulfanyl-idene)amino)ethyl)-5-nitro-3,4-dihydro-2H-benzo[b][1,4]oxazin-7-yl)sulfonyl)benza-mide] | 7.60 | 7.96 |  | 
3 | CC1(C)CCC(CN2CCN(c3ccc(C(=O)NS(=O)(=O)c4cc5c(c([N+](=O)[O-])c4)N[C@H](CCN4CC(O)C4)CO5)c(Oc4cnc5[nH]ccc5c4)c3)CC2)=C(c2ccc(Cl)cc2)C1 [Example 2-34, (R)-2-((1H-pyrrolo[2,3-b]pyridin-5-yl)oxy)-4-(4-((4′-chloro-5,5-dimethyl-3,4,5,6-tetra-hydro-[1,1′-biphenyl]-2-yl)methyl)piperazin-1-yl)-N-((3-(2-(3-hydroxyazetidin-1-yl)eth-yl)-5-nitro-3,4-dihydro-2H-benzo[b][1,4]oxazin-7-yl)sulfonyl)benzamide] | 7.39 | 7.85 |  | 
4 | CC1(C)CCC(CN2CCN(c3ccc(C(=O)NS(=O)(=O)c4cc5c(c([N+](=O)[O-])c4)N[C@H](CCN4CC(C)(O)C4)CO5)c(Oc4cnc5[nH]ccc5c4)c3)CC2)=C(c2ccc(Cl)cc2)C1 [Example 2-35, (R)-2-((1H-pyrrolo[2,3-b]pyridin-5-yl)oxy)-4-(4-((4′-chloro-5,5-dimethyl-3,4,5,6-tetra-hydro-[1,1′-biphenyl]-2-yl)methyl)piperazin-1-yl)-N-((3-(2-(3-hydroxy-3-methylazetidin-1-yl)ethyl)-5-nitro-3,4-dihydro-2H-ben-zo[b][1,4]oxazin-7-yl)sulfonyl)benzamide] | 7.52 | 8.30 |  | 
5 | C[C@@H]1CN(CC[C@@H]2COc3cc(S(=O)(=O)NC(=O)c4ccc(N5CCN(CC6=C(c7ccc(Cl)cc7)CC(C)(C)CC6)CC5)cc4Oc4cnc5[nH]ccc5c4)cc([N+](=O)[O-])c3N2)CCN1C [Example 2-36, 2-((1H-pyrrolo[2,3-b]pyridin-5-yl)oxy)-4-(4-((4′-chloro-5,5-dimethyl-3,4,5,6-tetrahydro-[1,1′-biphenyl]-2-yl)methyl)piperazin-1-yl)-N-(((R)-3-(2-((R)-3,4-dimethylpiperazin-1-yl)ethyl)-5-nitro-3,4-dihydro-2H-benzo [b][1,4]oxazin-7-yl)sulfonyl)benzamide] | 7.48 | 8.15 |  | 
6 | C[C@H]1CN(CC[C@@H]2COc3cc(S(=O)(=O)NC(=O)c4ccc(N5CCN(CC6=C(c7ccc(Cl)cc7)CC(C)(C)CC6)CC5)cc4Oc4cnc5[nH]ccc5c4)cc([N+](=O)[O-])c3N2)CCN1C [Example 2-37, 2-((1H-pyrrolo[2,3-b]pyridin-5-yl)oxy)-4-(4-((4′-chloro-5,5-dimethyl-3,4,5,6-tetrahydro-[1,1′-biphenyl]-2-yl)methyl)piperazin-1-yl)-N-(((R)-3-(2-((S)-3,4-dimethylpiperazin-1-yl)ethyl)-5-nitro-3,4-dihydro-2H-benzo [b][1,4]oxazin-7-yl)sulfonyl)benzamide] | 7.60 | 9.00 |  | 
7 | CC1(C)CCC(CN2CCN(c3ccc(C(=O)NS(=O)(=O)c4cc5c(c([N+](=O)[O-])c4)N[C@H](CCN4CCN(C6COC6)CC4)CO5)c(Oc4cnc5[nH]ccc5c4)c3)CC2)=C(c2ccc(Cl)cc2)C1 [Example 2-38, (R)-2-((1H-pyrrolo[2,3-b]pyridin-5-yl)oxy)-4-(4-((4′-chloro-5,5-dimethyl-3,4,5,6-tetra-hydro-[1,1′-biphenyl]-2-yl)methyl)piperazin-1-yl)-N-((5-nitro-3-(2-(4-(oxetan-3-yl)piperazin-1-yl)ethyl)-3,4-dihydro-2H-benzo [b][1,4]oxazin-7-yl)sulfonyl)benzamide] | 7.57 | 9.00 |  | 
8 | C[C@@H]1CN(CC[C@@H]2COc3cc(S(=O)(=O)NC(=O)c4ccc(N5CCN(CC6=C(c7ccc(Cl)cc7)CC(C)(C)CC6)CC5)cc4Oc4cnc5[nH]ccc5c4)cc([N+](=O)[O-])c3N2)CCN1C1COC1 [Example 2-39, 2-((1H-pyrrolo[2,3-b]pyridin-5-yl)oxy)-4-(4-((4′-chloro-5,5-dimethyl-3,4,5,6-tetrahydro-[1,1′-biphenyl]-2-yl)methyl)piperazin-1-yl)-N-(((R)-3-(2-((R)-3-methyl-4-(oxetan-3-yl)piperazin-1-yl)ethyl)-5-nitro-3,4-dihydro-2H-benzo[b][1,4]oxazin-7-yl)sulfonyl) benzamide] | 7.48 | 8.05 |  | 
9 | C[C@H]1CN(CC[C@@H]2COc3cc(S(=O)(=O)NC(=O)c4ccc(N5CCN(CC6=C(c7ccc(Cl)cc7)CC(C)(C)CC6)CC5)cc4Oc4cnc5[nH]ccc5c4)cc([N+](=O)[O-])c3N2)CCN1C1COC1 [Example 2-40] | 7.44 | 7.66 |  | 
10 | C[C@H]1CN(CC[C@@H]2COc3cc(S(=O)(=O)NC(=O)c4ccc(N5CCN(CC6=C(c7ccc(Cl)cc7)CC(C)(C)CC6)CC5)cc4Oc4cnc5[nH]ccc5c4)cc([N+](=O)[O-])c3N2)CCO1 [Example 2-41, 2-((1H-pyrrolo[2,3-b]pyridin-5-yl)oxy)-4-(4-((4′-chloro-5,5-dimethyl-3,4,5,6-tetrahydro-[1,1′-biphenyl]-2-yl)methyl)piperazin-1-yl)-N-(((R)-3-(2-((S)-2-methylmorpholino)ethyl)-5-nitro-3,4-dihydro-2H-benzo[b][1,4]oxazin-7-yl)sulfonyl)benzamide] | 7.64 | 8.70 |  | 
11 | C[C@@H]1CN(CC[C@@H]2COc3cc(S(=O)(=O)NC(=O)c4ccc(N5CCN(CC6=C(c7ccc(Cl)cc7)CC(C)(C)CC6)CC5)cc4Oc4cnc5[nH]ccc5c4)cc([N+](=O)[O-])c3N2)CCO1 [Example 2-42, 2-((1H-pyrrolo[2,3-b]pyridin-5-yl)oxy)-4-(4-((4′-chloro-5,5-dimethyl-3,4,5,6-tetrahydro-[1,1′-biphenyl]-2-yl)methyl)piperazin-1-yl)-N-(((R)-3-(2-((R)-2-methylmorpholino)ethyl)-5-nitro-3,4-dihydro-2H-benzo[b][1,4]oxa-zin-7-yl)sulfonyl)benzamide] | 7.42 | 8.22 |  | 
12 | CC1(C)CCC(CN2CCN(c3ccc(C(=O)NS(=O)(=O)c4cc5c(c([N+](=O)[O-])c4)N[C@@H](CCN=S(C)(C)=O)CO5)c(Oc4cnc5[nH]ccc5c4)c3)CC2)=C(c2ccc(Cl)cc2)C1 [Example 2-43, (S)-2-((1H-pyrrolo[2,3-b]pyridin-5-yl)oxy)-4-(4-((4′-chloro-5,5-dimethyl-3,4,5,6-tetra-hydro-[1,1′-biphenyl]-2-yl)methyl)piperazin-1-yl)-N-((3-(2-((dimethyl(oxo)-l6-sulfanyl-idene)amino)ethyl)-5-nitro-3,4-dihydro-2H-benzo[b][1,4]oxazin-7-yl)sulfonyl)benza-mide] |  |  | 8.00 | 9.00
13 | CC1(C)CCC(CN2CCN(c3ccc(C(=O)NS(=O)(=O)c4cc5c(c([N+](=O)[O-])c4)N[C@@H](CCN4CC(O)C4)CO5)c(Oc4cnc5[nH]ccc5c4)c3)CC2)=C(c2ccc(Cl)cc2)C1 [Example 2-44, (S)-2-((1H-pyrrolo[2,3-b]pyridin-5-yl)oxy)-4-(4-((4′-chloro-5,5-dimethyl-3,4,5,6-tetra-hydro-[1,1′-biphenyl]-2-yl)methyl)piperazin-1-yl)-N-((3-(2-(3-hydroxyazetidin-1-yl)eth-yl)-5-nitro-3,4-dihydro-2H-benzo[b][1,4]oxazin-7-yl)sulfonyl)benzamide] | 7.29 | 7.34 |  | 
14 | CC1(C)CCC(CN2CCN(c3ccc(C(=O)NS(=O)(=O)c4cc5c(c([N+](=O)[O-])c4)N[C@@H](CCN4CC(C)(O)C4)CO5)c(Oc4cnc5[nH]ccc5c4)c3)CC2)=C(c2ccc(Cl)cc2)C1 [Example 2-45, (S)-2-((1H-pyrrolo[2,3-b]pyridin-5-yl)oxy)-4-(4-((4′-chloro-5,5-dimethyl-3,4,5,6-tetra-hydro-[1,1′-biphenyl]-2-yl)methyl)piperazin-1-yl)-N-((3-(2-(3-hydroxy-3-methylazeti-din-1-yl)ethyl)-5-nitro-3,4-dihydro-2H-ben-zo[b][1,4]oxazin-7-yl)sulfonyl)benzamide] | 7.77 | 7.92 |  | 
15 | C[C@@H]1CN(CC[C@H]2COc3cc(S(=O)(=O)NC(=O)c4ccc(N5CCN(CC6=C(c7ccc(Cl)cc7)CC(C)(C)CC6)CC5)cc4Oc4cnc5[nH]ccc5c4)cc([N+](=O)[O-])c3N2)CCN1C [Example 2-46, 2-((1H-pyrrolo[2,3-b]pyridin-5-yl)oxy)-4-(4-((4′-chloro-5,5-dimethyl-3,4,5,6-tetrahydro-[1,1′-biphenyl]-2-yl)methyl)piperazin-1-yl)-N-(((S)-3-(2-((R)-3,4-dimethylpiperazin-1-yl)ethyl)-5-nitro-3,4-dihydro-2H-benzo [b][1,4]oxazin-7-yl)sulfonyl)benzamide] | 8.15 | 9.00 |  | 
